For experiment [1], the system named is MDA-MB 231 cells. Put plainly: Protein tyrosine phosphorylation (anti-PY immunoprecipitation/immunoblot). The experiment is classed as cell-based, human. The note with it: 10 mM, 15 min to 2 h. The protocol: FIG. 2. Effects of tempol and tempo on protein tyrosine phosphorylation. Subconfluent cultures were grown in serum-free medium overnight, followed by treatment with tempol (10 mM) or tempo (10 mM) for indicated times and lysis. Normalized protein contents (1 mg) were immunoprecipitated with agarose-conjugated anti-PY MAb, and then immunoblotted with anti-PY MAb. Data shown is representative of two independent experiments. UT, untreated cells grown overnight in serum-free medium.
Cell Culture, Treatments with Tempol and Tempo, and Preparation of Cell Lysates—MDA-MB 231 human breast cancer cells were grown to near confluence in 75 cm^2 tissue culture flasks in Improved Minimum Essential Medium (IMEM) (Cellgro) containing 10% fetal bovine serum (FBS) and 2 mM L-glutamine in a humidified atmosphere of 5% CO2: 95% air at 37° C. Cells were trypsinized and plated into a 150 mm tissue culture dish (two dishes per flask) overnight in medium containing 10% FBS followed by two washes with phosphate buffer saline (PBS). […]
Immunoprecipitation and Immunoblotting—Whole cell lysate (1 mg) was immunoprecipitated with the appropriate agarose-conjugated antibody (1 ug/ml of lysis buffer) overnight at 4° C. with constant agitation. […] The bands of interest were quantified by ImageQuant software version 3.3 (Molecular Dynamics Personal Densitometer, Sunnyvale, Calif.). […]

Experiment [2] deals with MDA-MB 231 cells. The experiment can be described thus: Ceramide generation assay (DAG kinase assay). The experiment is classed as cell-based, human. The following applies: 10 mM. As for the experimental part: FIG. 8. Ceramide production in tempo-treated MDA-MB 231 cells. Logarithmically growing cells were cultured in serum-free medium overnight in 60 mm dishes, and treated with tempol (10 mM) and tempo (10 mM) for indicated times, followed by lipid extraction, and quantitation of ceramide by DAG kinase assay as described in experimental procedures. The organic phase extract containing the [γ^32P]-labeled ceramide was quantitated. Control cells were grown overnight in serum-free medium, followed by treatment with 1% ethanol for various times ranging from 0.5 h to 2 h. Tempol/tempo treatment values shown are the mean±s.d. of triplicate determinations, the value at each time point normalized to control (100%).
Ceramide Generation Assay—Ceramide production in MDA-MB 231 cells was determined by diacylglycerol (DAG) kinase assay according to a previously described procedure (Haimovitz-Friedman, A. et al., 1994, J. Exp. Med. 180, 525–535; Dressler, K. A. and Kolesnick, R. N., 1990, J. Biol. Chem. 265, 14917–14921). Briefly, MDA-MB 231 cells were split (1:2), and after 24 h, the cells were washed twice with PBS and serum-free medium was added, followed by incubation for additional 24 h. The cells (˜2×10^6/60 mm dish) were treated with tempo (10 mM) or tempol (10 mM) for various times. Following treatment, floating cells were collected and pelleted by centrifugation for 10 min at 1200 rpm, and attached cells were collected by scraping. Lipids were extracted from all cells (floating and attached) by incubation in 1 ml 100% ice-cold methanol. After a partial purification with chloroform, the extracted lipid in the organic phase was dried under N2 and was treated with a mild alkaline solution (0.1 N KOH in methanol) for 1 h at 37° C. to remove glycerolphospholipids. […] The spot containing the ceramide-1-phosphate was visualized by autoradiography, and the incorporated ^32P was removed by scraping, and quantified by Cerenkov counting. […]

On to `CC1(C)CCCC(C)(C)N1[O]` [tempo, 2,2,6,6-tetramethylpiperidine-N-oxyl], for which, in the experiment with MDA-MB 231 cells [1], the protein tyrosine phosphorylation entry is “conspicuous increase”. For the same compound, the “increase over control in ceramide level” value in the experiment on MDA-MB 231 cells [2] (30 min, control normalized to 100%) stood at 54%. The “ceramide level over control” value with MDA-MB 231 cells [2] (1 h, control normalized to 100%) amounted to 71%.

In the case of `CC1(C)CC(O)CC(C)(C)N1[O]` [tempol, 4-hydroxy-tempo, reference compound], the protein tyrosine phosphorylation entry with MDA-MB 231 cells [1] is “minimal protein tyrosine phosphorylation”. Besides, the “level of ceramide generated compared to control cells” value with MDA-MB 231 cells [2] (all time points) is “not significantly higher”.

The values are drawn from US7074807B2, “Compositions and methods for inducing cell death” (Georgetown University, priority 1998, dated 2006).
